What all share (type): functional
Test [1] deals with Mus musculus. Briefly: Anti-obesity activity in male C57BL/6 mouse model of high-fat diet induced obesity assessed as body weight change at 150 mg/kg, po administered once a day for 4 weeks relative to control.
Test [2] deals with Mus musculus. Briefly: Anti-obesity activity in high-fat diet induced C57BL/6J obese mouse model assessed as body weight change at 150 mg/kg, po administered once daily for 4 weeks relative to control.
The test system of test [3] is Mus musculus. Briefly: Anti-obesity activity in Swiss male mouse model of high-fat diet induced obesity assessed as body weight change at 10 mg/kg, po administered for 15 weeks relative to control.
For test [4], the system named is Mus musculus. Briefly: Anti-obesity activity in female C57BL/6 mouse model of high-fat diet induced obesity assessed as body weight change at 0.005 % (w/v) administered orally for 16 weeks relative to control. As to conditions: route po.
For test [5], the system named is Mus musculus. Briefly: Anti-obesity activity in male C57BL/6 mouse model of high-fat diet induced obesity assessed as body weight change at 20 mg/kg, po administered once a day for 8 weeks relative to control.
For test [6], the system named is Mus musculus. Briefly: Anti-obesity activity in male C57BL/6 mouse model of high-fat diet induced obesity assessed as body weight change at 15 mg/kg, ip administered once a day for 8 weeks relative to control.
In test [7] the test system is Mus musculus. Briefly: Anti-obesity activity in male C57BL/6 mouse model of high-fat diet induced obesity assessed as body weight change at 25 mg/kg, ip administered once a day for 13 weeks relative to control.
The subject of test [8] is Mus musculus. Briefly: Anti-obesity activity in male C57BL/6 mouse model of high-fat diet induced obesity assessed as body weight change administered orally with 0.5 g in 500 g of HFD diet for 13 weeks relative to control. As to conditions: route po, at 0.5 g.
The subject of test [9] is Mus musculus. Briefly: Anti-obesity activity in male C57BL/6 mouse model of high-fat diet induced obesity assessed as body weight change at 50 mg/kg, po administered once a day for 8 weeks relative to control.
Test [10] has as its system Mus musculus. Briefly: Anti-obesity activity in male C57BL/6 mouse model of high-fat diet induced obesity assessed as body weight change at 5 mg/kg, po administered thrice a week for 8 weeks relative to control.
Test [11] deals with Mus musculus. Briefly: Anti-obesity activity in male C57BL/6 mouse model of high-fat diet induced obesity assessed as body weight change at 50 mg/kg, po administered once a day for 9 weeks relative to control.
Test [12] concerns Mus musculus. Briefly: Anti-obesity activity in female C57BL/6 mouse model of high-fat diet induced obesity assessed as body weight change at 40 mg/kg, po administered once daily for 16 weeks relative to control.
In test [13] the test system is Mus musculus. Briefly: Anti-obesity activity in ovariectomized C57BL/6 mouse assessed as body weight change at 40 mg/kg, po administered once daily for 16 weeks relative to control.
Test [14] relates to Mus musculus. Briefly: Anti-obesity activity in male C57BL/6 mouse model of high-fat diet induced obesity assessed as body weight change at 30 mg/kg, po administered once a day for 8 weeks relative to control.

This passage reports Activity results from ChEMBL document CHEMBL5126556, “Recent advances in natural anti-obesity compounds and derivatives based on in vivo evidence: A mini-review” (Eur J Med Chem, 2022).

On to `CC1(C)C=Cc2c(ccc3c2OC[C@@H](c2ccc(O)cc2O)C3)O1` [GLABRIDIN], for which the Activity in the test with Mus musculus [1] is -16.7%; with Mus musculus [2], -13.2%.
Regarding `CC1(C)CC[C@]2(C(=O)O)CC[C@]3(C)C(=CC[C@@H]4[C@@]5(C)CC[C@H](O)C(C)(C)[C@@H]5CC[C@]43C)[C@@H]2C1` [OLEANOLIC_ACID], the Activity with Mus musculus [3] turned out to be 71.9%; in the test on Mus musculus [4] it was 45%.
For the molecule `C=C1C(=O)O[C@@H]2C[C@@]3(C)CCCC(=C)[C@@H]3C[C@H]12` [ISOALANTOLACTONE], in the test with Mus musculus [5], the Activity is 44.1%.
On to `O=C(/C=C/c1ccc(O)c(O)c1)c1ccc(O)cc1O` [BUTEIN], for which, in the test with Mus musculus [6], the Activity is recorded as 42.9%.
Regarding `CC(C)(O)[C@@H]1CC[C@](C)([C@H]2[C@@H](O)C[C@@]3(C)[C@@H]4C[C@H](O[C@@H]5O[C@H](CO)[C@@H](O)[C@H](O)[C@H]5O)[C@H]5C(C)(C)[C@@H](O[C@@H]6OC[C@@H](O)[C@H](O)[C@H]6O)CC[C@@]56C[C@@]46CC[C@]23C)O1`, the Activity with Mus musculus [7] came out at 25.4%.
With `O=c1c(-c2ccc(O)c(O)c2)coc2cc(O)ccc12`, in the test with Mus musculus [8], the Activity came out at 63.5%.
On to `COc1cc(O)c(C(=O)[C@@H]2[C@H](CC=C(C)C)C(C)=CC[C@H]2c2ccccc2)c(O)c1` [PANDURATIN A], for which, in the test on Mus musculus [9], the Activity is 15%.
Take `Cc1coc2c1C(=O)C(=O)c1c-2ccc2c(C)cccc12` [TANSHINONE I]: the Activity with Mus musculus [10] is recorded as 30.6%.
Regarding `COc1ccc(-c2coc3cc(O)ccc3c2=O)cc1` [FORMONONETIN], in the test with Mus musculus [9], the Activity stood at 18.8%.
Take `CC1(C)C=Cc2cc(-c3coc4cc(O)ccc4c3=O)ccc2O1` [ISOWIGHTEONE]: the Activity in the test on Mus musculus [11] was found to be 8.3%.
Regarding `COc1cc(O)c2c(=O)oc(-c3ccccc3)cc2c1CC=C(C)C`, the Activity is reported as 28.6% in the test on Mus musculus [12] and 17.9% in the test on Mus musculus [13].
On to `CC1(C)[C@@H](O)CC[C@]2(C)[C@H]3C(=O)C=C4[C@@H]5C[C@@](C)(C(=O)O)CC[C@]5(C)CC[C@@]4(C)[C@]3(C)CC[C@@H]12` [ENOXOLONE], for which the Activity with Mus musculus [14] is recorded as 30.2%.
